Test results published in patent US12606541B2, “PPARg modulators and methods of use” (Eisai R&D Management Co., Ltd., priority 2020, dated 2026).
Read-outs that look alike come from different tables or passages of the source.

Experiments:
[1] = target: T1, His6-TEV-PPARγ-(234-505) (Homo sapiens, UniProt P37231); assay: TR-FRET Assay to Measure Co-R Peptide Recruitment to PPARγ; assay type: biochemical; conditions: Co-R peptide (SMRT-ID2) recruitment; top final concentration 20 μM; read-out: TR-FRET i-Ag; AC50
T1 construct: The His6-TEV-PPARγ-(234-505) protein for assay was expressed and purified; TEV cleavage site (N); made in house
T1 sequence (P37231 234-505): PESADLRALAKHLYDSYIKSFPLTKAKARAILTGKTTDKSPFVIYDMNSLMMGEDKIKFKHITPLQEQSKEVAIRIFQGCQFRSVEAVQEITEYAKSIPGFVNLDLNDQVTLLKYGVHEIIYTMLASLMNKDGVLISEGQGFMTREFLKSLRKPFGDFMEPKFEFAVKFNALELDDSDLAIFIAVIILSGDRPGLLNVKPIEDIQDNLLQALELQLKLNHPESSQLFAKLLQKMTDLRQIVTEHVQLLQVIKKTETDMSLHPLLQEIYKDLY
Summary of the method: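 Corepressor recruitment is measured by adding terbium-labeled anti-His antibody and FITC SMRT-ID2 peptide, at 5 and 200 nM final, after a 20-minute room-temperature protein–compound incubation. After one further hour, signal is converted to percent response between DMSO and 500 nM T0070907 wells.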

[2] = test system: UM-UC-9 engineered cells; assay: Cell proliferation / short-term viability assay, CellTiter-Glo 144 h; assay type: cell-based, human; conditions: read-out: CTGlo 144 h UMUC9.5, G150
Summary of the method: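 Viability read by CellTiter-Glo 2.0 luminescence at day 7 versus DMSO-vehicle wells and a T0 plate measured on day 0. Cells: UM-UC-9 engineered assay-ready stocks, 500 cells/well in high-glucose DMEM with 10% FBS, 37° C, 5% CO2.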

Row | SMILES | AC50 [1] [nM] | IC50 [2] [nM] | IC50 ([2]; Homo sapiens, UM-UC-9, 144 h) [nM]
1 | COc1cc(-c2cc(C(=O)N3CCC(C(=O)NC4CCN(c5ccnc6[nH]ncc56)C4)CC34CC4)n[nH]2)c(F)cn1 (mixture of isomers) [Example 450, (S)—N—((S)-1-(1H-pyrazolo[3,4-b]pyridin-4-yl)pyrrolidin-3-yl)-4-(5-(5-fluoro-2-methoxypyridin-4-yl)-1H-pyrazole-3-carbonyl)-4-azaspiro[2.5]octane-7-carboxamide and (S)—N—((R)-1-(1H-pyrazolo[3,4-b]pyridin-4-yl)pyrrolidin-3-yl)-4-(5-(5-fluoro-2-methoxypyridin-4-yl)-1H-pyrazole-3-carbonyl)-4-azaspiro[2.5]octane-7-carboxamide] | 1.5 | 114 | –
2 | COc1cc(-c2cc(C(=O)N3CCC(C(=O)NCc4ccc(C)o4)CC3)n[nH]2)c(Cl)cn1 [Example 189, 1-(5-(5-chloro-2-methoxypyridin-4-yl)-1H-pyrazole-3-carbonyl)-N-((5-methylfuran-2-yl)methyl)piperidine-4-carboxamide] | 119 | – | 521
3 | COc1cc(-c2cc(C(=O)N3CCC(C(=O)NCc4ccc5c(c4)CC(=O)N5C)CC3)n[nH]2)c(Cl)cn1 [Example 235, 1-(5-(5-chloro-2-methoxypyridin-4-yl)-1H-pyrazole-3-carbonyl)-N-((1-methyl-2-oxoindolin-5-yl)methyl)piperidine-4-carboxamide] | 404 | – | 2360
4 | CCc1cc(-c2cc(C(=O)N3[C@@H]4CC[C@H]3C[C@H](C(=O)N[C@H]3CC[C@@](O)(C(F)(F)F)CC3)C4)n[nH]2)ccn1 [Example 316, (1R,3s,5S)-8-(5-(2-ethylpyridin-4-yl)-1H-pyrazole-3-carbonyl)-N-((1r,4R)-4-hydroxy-4-(trifluoromethyl)cyclohexyl)-8-azabicyclo[3.2.1]octane-3-carboxamide] | 67.9 | – | 3390
5 | COc1cc(-c2cc(C(=O)N3CCC(C(=O)N[C@H](C)c4cccc(F)c4)CC3)n[nH]2)c(Cl)cn1 [Example 153, (R)-1-(5-(5-chloro-2-methoxypyridin-4-yl)-1H-pyrazole-3-carbonyl)-N-(1-(3-fluorophenyl)ethyl)piperidine-4-carboxamide] | 621 | – | 2090
6 | COc1cc(-c2cc(C(=O)N3CCC(C(=O)NCc4cnc5[nH]ccc5c4)CC3)n[nH]2)c(Cl)cn1 [Example 168, N-((1H-pyrrolo[2,3-b]pyridin-5-yl)methyl)-1-(5-(5-chloro-2-methoxypyridin-4-yl)-1H-pyrazole-3-carbonyl)piperidine-4-carboxamide] | 45.7 | – | 487
7 | COc1cc(-c2cc(C(=O)N3CCC(C(=O)NCc4cccc(Cl)c4)CC3(C)C)n[nH]2)c(Cl)cn1 (racemic) [Example 255] | 63.3 | – | 151
8 | COc1cc(-c2cc(C(=O)N3[C@@H]4CC[C@H]3C[C@H](C(=O)NC3CCC5(CC3)OCC(F)C5F)C4)n[nH]2)c(F)cn1 (stereo partly drawn) [Example 319, (1R,3s,5S)—N-(3,41-difluoro-1-oxaspiro[4.5]decan-8-yl)-8-(5-(5-fluoro-2-methoxypyridin-4-yl)-1H-pyrazole-3-carbonyl)-8-azabicyclo[3.2.1]octane-3-carboxamide] | 124 | – | 232
9 | COc1cc(-c2cc(C(=O)N3CC[C@@H](C(=O)NCc4cccc(Cl)c4)CC34CCC4)n[nH]2)c(Cl)cn1 (single isomer, unassigned) [Example 256-B] | 15900 | – | 3520
10 | COc1cc(-c2cc(C(=O)N3CCC(C(=O)NC4CCN(c5cnc(C)nc5)C4)CC34CC4)n[nH]2)c(F)cn1 (mixture of isomers) [Example 453, (S)-4-(5-(5-fluoro-2-methoxypyridin-4-yl)-1H-pyrazole-3-carbonyl)-N—((S)-1-(2-methylpyrimidin-5-yl)pyrrolidin-3-yl)-4-azaspiro[2.5]octane-7-carboxamide and (S)-4-(5-(5-fluoro-2-methoxypyridin-4-yl)-1H-pyrazole-3-carbonyl)-N—((R)-1-(2-methylpyrimidin-5-yl)pyrrolidin-3-yl)-4-azaspiro[2.5]octane-7-carboxamide] | 25.6 | 44.2 | –
11 | COc1cc(-c2cc(C(=O)N3CCC(C(=O)NCc4ccc(F)cn4)CC3)n[nH]2)c(Cl)cn1 [Example 127, 1-(5-(5-chloro-2-methoxypyridin-4-yl)-1H-pyrazole-3-carbonyl)-N-((5-fluoropyridin-2-yl)methyl)piperidine-4-carboxamide] | 644 | – | 2930

The next lines start with results.

Row | AC50 [1] [nM] | SMILES | IC50 [2] [nM] | IC50 ([2]; Homo sapiens, UM-UC-9, 144 h) [nM]
12 | 3.7 | COc1cc(-c2cc(C(=O)N3CC[C@H](C(=O)NCc4ncc(F)cc4Cl)CC34CC4)n[nH]2)c(F)cn1 [Example 362, (S)—N-((3-chloro-5-fluoropyridin-2-yl)methyl)-4-(5-(5-fluoro-2-methoxypyridin-4-yl)-1H-pyrazole-3-carbonyl)-4-azaspiro[2.5]octane-7-carboxamide] | – | 8.7
13 | 118 | Cc1cc(-c2cc(C(=O)N3CC[C@@H](C(=O)N[C@H]4CC[C@@](O)(C(F)(F)F)CC4)CC34CC4)n[nH]2)c(F)cn1 (single isomer, unassigned) [Example 287-B] | – | 184
14 | 8.7 | COc1cc(-c2cc(C(=O)N3CC[C@H](C(=O)NCc4nc(C)oc4C(F)(F)F)CC34CC4)n[nH]2)c(F)cn1 [Example 394, (S)-4-(5-(5-fluoro-2-methoxypyridin-4-yl)-1H-pyrazole-3-carbonyl)-N-((2-methyl-5-(trifluoromethyl)oxazol-4-yl)methyl)-4-azaspiro[2.5]octane-7-carboxamide] | – | 24.5
15 | 49.5 | CO[C@]1(C(F)(F)F)CC[C@H](NC(=O)[C@H]2CCN(C(=O)c3cc(-c4cc(C)ncn4)[nH]n3)C3(CC3)C2)CC1 (single isomer, unassigned) [Example 309-B] | – | 302
16 | 5.4 | COc1cc(-c2cc(C(=O)N3CC[C@H](C(=O)NC4CCC(O)(C(F)(F)F)C(O)C4)CC34CC4)n[nH]2)c(F)cn1 (single isomer, unassigned) [Example 474-C] | – | 23.6
17 | 6.1 | COc1cc(-c2cc(C(=O)N3CC[C@H](C(=O)NCc4cccc5ccnn45)CC34CC4)n[nH]2)c(F)cn1 [Example 416, (S)-4-(5-(5-fluoro-2-methoxypyridin-4-yl)-1H-pyrazole-3-carbonyl)-N-(pyrazolo[1,5-a]pyridin-7-ylmethyl)-4-azaspiro[2.5]octane-7-carboxamide] | – | 7.4
18 | 2.2 | COc1cc(-c2cc(C(=O)N3CC[C@H](C(=O)N[C@H]4CC[C@@](O)(C(F)(F)F)CC4)CC34CC4)n[nH]2)c(Cl)cn1 (single isomer, unassigned) [Example 286-B] | – | 1.5
19 | 113 | COc1cc(-c2cc(C(=O)N3CCC(C(=O)N[C@H]4CC[C@@](O)(C(F)(F)F)CC4)CC34COC4)n[nH]2)c(F)cn1 (stereo partly shown) [Example 444, 5-(5-(5-fluoro-2-methoxypyridin-4-yl)-1H-pyrazole-3-carbonyl)-N-((1r,4r)-4-hydroxy-4-(trifluoromethyl)cyclohexyl)-2-oxa-5-azaspiro[3.5]nonane-8-carboxamide] | – | > 10000
20 | 504 | COc1cc(-c2cc(C(=O)N3CCC(C(=O)NCC4CCn5c(C)nnc5C4)CC34CC4)n[nH]2)c(F)cn1 (single isomer, unassigned) [Example 346-A] | 2790 | –
